Source: US8927717B1, “Thiochromeno[2,3-c]quinolin-12-one derivatives, preparation method and application thereof” (National Defense Medical Center, priority 2014, dated 2015)

Assays:
Assay type in all cases: cell-based
786-0 = settings: Renal cancer; 10^−5 molar; 48 hours; SRB
TK-10 = settings: Renal cancer; 10^−5 molar; 48 hours; SRB
SNB-75 = settings: CNS cancer; 10^−5 molar; 48 hours; SRB
SNB-19 = settings: CNS cancer; 10^−5 molar; 48 hours; SRB
60 cancer cell lines = assay: NCI 60-cell screen, SRB, whole panel (mean, delta, range); settings: 10^−5 molar, 48 hours, SRB; for Growth percent, Delta: delta over the cell panel; for Growth percent, Mean: mean over the cell panel; for Growth percent, Range: range over the cell panel
NCI-H460 = settings: Non-small cell lung cancer; 10^−5 molar; 48 hours; SRB
KM12 = assay: cells; settings: Colon cancer; 10^−5 molar; 48 hours; SRB
RXF 393 = settings: Renal cancer; 10^−5 molar; 48 hours; SRB
K-562 = settings: Leukemia; 10^−5 molar; 48 hours; SRB
NCI-H23 = settings: Non-small cell lung cancer; 10^−5 molar; 48 hours; SRB
SW-620 = settings: Colon cancer; 10^−5 molar; 48 hours; SRB
SK-MEL-28 = settings: Melanoma; 10^−5 molar; 48 hours; SRB
ACHN = settings: Renal cancer; 10^−5 molar; 48 hours; SRB
DU-145 = settings: Prostate cancer; 10^−5 molar; 48 hours; SRB
HL-60(TB) = settings: Leukemia; 10^−5 molar; 48 hours; SRB
T-47D = settings: Breast cancer; 10^−5 molar; 48 hours; SRB
MCF7 = settings: Breast cancer; 10^−5 molar; 48 hours; SRB
SK-MEL-5 = settings: Melanoma; 10^−5 molar; 48 hours; SRB
COLO 205 = settings: Colon cancer; 10^−5 molar; 48 hours; SRB
MALME-3M = settings: Melanoma; 10^−5 molar; 48 hours; SRB
NCI-H522 = settings: Non-small cell lung cancer; 10^−5 molar; 48 hours; SRB
SF-295 = settings: CNS cancer; 10^−5 molar; 48 hours; SRB
M14 = settings: Melanoma; 10^−5 molar; 48 hours; SRB
SN12C = settings: Renal cancer; 10^−5 molar; 48 hours; SRB
UO-31 = settings: Renal cancer; 10^−5 molar; 48 hours; SRB
UACC-62 = settings: Melanoma; 10^−5 molar; 48 hours; SRB
HT29 = settings: Colon cancer; 10^−5 molar; 48 hours; SRB
PC-3 = settings: Prostate cancer; 10^−5 molar; 48 hours; SRB
OVCAR-5 = settings: Ovarian cancer; 10^−5 molar; 48 hours; SRB
CCRF-CEM = settings: Leukemia; 10^−5 molar; 48 hours; SRB
MDA-MB-231/ATCC = settings: Breast cancer; 10^−5 molar; 48 hours; SRB
OVCAR-8 = settings: Ovarian cancer; 10^−5 molar; 48 hours; SRB
NCI/ADR-RES = settings: Ovarian cancer; 10^−5 molar; 48 hours; SRB
RPMI-8226 = settings: Leukemia; 10^−5 molar; 48 hours; SRB
SF-268 = settings: CNS cancer; 10^−5 molar; 48 hours; SRB
HS 578T = settings: Breast cancer; 10^−5 molar; 48 hours; SRB
LOX IMVI = settings: Melanoma; 10^−5 molar; 48 hours; SRB
MDA-MB-486 = settings: Breast cancer; 10^−5 molar; 48 hours; SRB
U251 = settings: CNS cancer; 10^−5 molar; 48 hours; SRB

For CC(C)CC(C)Nc1nc2ccccc2c2c(=O)c3cc(Cl)ccc3sc12 (stereo not shown) [Compound N13, 10-Chloro-6-((4-methylpentan-2-yl)amino)-12H-thiochromeno[2,3-c]quinolin-12-one], the “Growth percent 786-0” value (786-0) was 99.74%, the “Growth percent TK-10” value (TK-10) was 123.23% and the “Growth percent SNB-75” value (SNB-75) was 85.02%. For the same compound, the “Growth percent SNB-19” value (SNB-19) was 106.79%, the “Growth percent, Delta” value (60 cancer cell lines) was 22.57% and the “Growth percent, Mean” value (60 cancer cell lines) was 96.33%. The “Growth percent, Range” value (60 cancer cell lines) was 49.47%, the “Growth percent NCI-H460” value (NCI-H460) was 95.17% and the “Growth percent KM12” value (KM12) was 105.66%. The “Growth percent RXF 393” value (RXF 393) was 98.67%, the “Growth percent K-562” value (K-562) was 106.64% and the “Growth percent NCI-H23” value (NCI-H23) was 95.10%. The “Growth percent SW-620” value (SW-620) was 92.80%, the “Growth percent SK-MEL-28” value (SK-MEL-28) was 106.87% and the “Growth percent ACHN” value (ACHN) was 91.24%. The “Growth percent DU-145” value (DU-145) was 113.48%, the “Growth percent HL-60(TB)” value (HL-60(TB)) was 103.96% and the “Growth percent T-47D” value (T-47D) was 73.76%. The “Growth percent MCF7 (Table 2: MCF)” value (MCF7) was 73.82%, the “Growth percent SK-MEL-5” value (SK-MEL-5) was 90.71% and the “Growth percent COLO 205” value (COLO 205) was 93.45%. For the same compound, the “Growth percent MALME-3M” value (MALME-3M) was 95.93%, the “Growth percent NCI-H522” value (NCI-H522) was 102.30% and the “Growth percent SF-295” value (SF-295) was 95.92%. The “Growth percent M14” value (M14) was 94.27%, the “Growth percent SN12C” value (SN12C) was 95.14% and the “Growth percent UO-31” value (UO-31) was 78.64%. The “Growth percent UACC-62” value (UACC-62) was 96.09%, the “Growth percent HT29” value (HT29) was 121.02% and the “Growth percent PC-3” value (PC-3) was 86.33%. For the same compound, the “Growth percent OVCAR-5” value (OVCAR-5) was 101.36%, the “Growth percent CCRF-CEM” value (CCRF-CEM) was 98.57% and the “Growth percent MDA-MB-231/ATCC” value (MDA-MB-231/ATCC) was 84.22%. The “Growth percent OVCAR-8” value (OVCAR-8) was 92.79%, the “Growth percent NCI/ADR-RES” value (NCI/ADR-RES) was 98.47% and the “Growth percent RPMI-8226” value (RPMI-8226) was 97.78%. For the same compound, the “Growth percent SF-268” value (SF-268) was 105.52%, the “Growth percent HS 578T” value (HS 578T) was 89.33% and the “Growth percent LOX IMVI” value (LOX IMVI) was 98.90%. For the same compound, the “Growth percent MDA-MB-486” value (MDA-MB-486) was 96.02% and the “Growth percent U251” value (U251) was 105.12%.
For O=c1c2cc(Cl)ccc2sc2c(NCCO)nc3ccccc3c12 [Compound N9, 10-Chloro-6-(2-ethanolamino)-12H-thiochromeno[2,3-c]quinolin-12-one], the “Growth percent 786-0” value (786-0) was 104.43%, the “Growth percent TK-10” value (TK-10) was 78.14% and the “Growth percent SNB-75” value (SNB-75) was 90.05%. For the same compound, the “Growth percent SNB-19” value (SNB-19) was 90.96%, the “Growth percent, Delta” value (60 cancer cell lines) was 56.67% and the “Growth percent, Mean” value (60 cancer cell lines) was 86.33%. The “Growth percent, Range” value (60 cancer cell lines) was 101.96%, the “Growth percent NCI-H460” value (NCI-H460) was 100.97% and the “Growth percent KM12” value (KM12) was 91.93%. The “Growth percent RXF 393” value (RXF 393) was 92.81%, the “Growth percent K-562” value (K-562) was 68.23% and the “Growth percent NCI-H23” value (NCI-H23) was 86.06%. For the same compound, the “Growth percent SW-620” value (SW-620) was 97.18%, the “Growth percent SK-MEL-28” value (SK-MEL-28) was 100.76% and the “Growth percent ACHN” value (ACHN) was 82.25%. The “Growth percent DU-145” value (DU-145) was 102.77%, the “Growth percent HL-60(TB)” value (HL-60(TB)) was 104.58% and the “Growth percent T-47D” value (T-47D) was 74.45%. For the same compound, the “Growth percent MCF7 (Table 2: MCF)” value (MCF7) was 29.66%, the “Growth percent SK-MEL-5” value (SK-MEL-5) was 97.36% and the “Growth percent COLO 205” value (COLO 205) was 99.13%. The “Growth percent MALME-3M” value (MALME-3M) was 104.86%, the “Growth percent NCI-H522” value (NCI-H522) was 76.94% and the “Growth percent SF-295” value (SF-295) was 92.50%. The “Growth percent M14” value (M14) was 107.09%, the “Growth percent SN12C” value (SN12C) was 92.52% and the “Growth percent UO-31” value (UO-31) was 51.97%. The “Growth percent UACC-62” value (UACC-62) was 76.52%, the “Growth percent HT29” value (HT29) was 87.36% and the “Growth percent PC-3” value (PC-3) was 71.70%. The “Growth percent OVCAR-5” value (OVCAR-5) was 101.56%, the “Growth percent CCRF-CEM” value (CCRF-CEM) was 81.07% and the “Growth percent MDA-MB-231/ATCC” value (MDA-MB-231/ATCC) was 66.62%. For the same compound, the “Growth percent OVCAR-8” value (OVCAR-8) was 78.13%, the “Growth percent NCI/ADR-RES” value (NCI/ADR-RES) was 91.54% and the “Growth percent RPMI-8226” value (RPMI-8226) was 83.81%. For the same compound, the “Growth percent SF-268” value (SF-268) was 95.06%, the “Growth percent HS 578T” value (HS 578T) was 83.24% and the “Growth percent LOX IMVI” value (LOX IMVI) was 86.96%. The “Growth percent MDA-MB-486” value (MDA-MB-486) was 39.59% and the “Growth percent U251” value (U251) was 84.10%.
